# Ends that are not written are not given here.
# Tests used:
# [1] = Stability in human blood plasma (TAM-labeled analogues); type: in vitro ADME; settings: 10E-5 M, 37° C., two phase decay, N-terminally TAM-labeled analogues, read-out: HalfLife (Slow) (converted)
# Text: FIG. 3: Stability of peptides in plasma calculated with GraphPad Prism 5 (GraphPad Software) using two phase decay analysis for the determination of half-life (slow) (Test 1e). N-terminally 6-carboxytetramethylrhodamine-(TAM)-labeled analogues of Control: TAM[G^14]ADM(14-52); Example 18: TAM[K^14(PAM), (Dpr^16, E^21)lac]ADM(14-52); and Example 27: TAM[K^14(PAM), (Dpr^16, E^21)lac, Nα-Me-K^46]ADM(14-52).
# The stability of the peptides was investigated using N-terminally 6-carboxytetramethylrhodamine-(TAM)-labeled analogues.
# Fluorescently labeled ADM analogues were prepared by using solid phase peptide synthesis (SPPS) as described before (general method for peptide synthesis). Manual coupling of 6-carboxytetramethylrhodamine (TAM) to the N-terminus of the peptides was carried out with a 3-fold molar excess of the fluorescence dye, 2-(1H-benzotriazol-1-yl)-1,1,3,3-tetramethyluronium hexafluorophosphate (HBTU) and N,N-Diisopropylethylamine (DIPEA) in DMF under constant shaking for 24 h the resin as described recently (Bohme D., Beck-Sickinger A. G. ChemMedChem 2015, 10: 804-14). The identity of the peptides was confirmed by mass spectrometry with an MALDI-MS (UltraflexIII, Bruker) and an ESI-MS (HCT, Bruker). The observed masses were in correspondence to the calculated masses.
# The peptides were dissolved in 1.5 ml of human blood plasma to a concentration of 10E-5 M and incubated at 37° C. under constant shaking. […] The samples were analyzed by RP-HPLC using a Varian VariTide RPC column (particle size 6 μm; pore size 200 Å; 250×4.6 mm) with linear gradients of 0.1% TFA in water and 0.08% TFA in ACN; fluorescence emission was detected at λ=573 nm. The percentage of intact peptide was determined by peak integration. […] The stability of the peptides was calculated with GraphPad Prism 5 (GraphPad Software) using a two phase exponential decay function for the determination of slow-decay phase half-lives (ln(2)/Kslow; Kslow: rate constant of slow part of exponential decay) (Table 3 and FIG. 3).
# [2] = test system: mean arterial blood pressure; settings: doses of ≦300 μg/kg body weight; reference WO 2013/064508 A1; cited from earlier work
# [3] = only at −80° C. under argon atmosphere; cited from earlier work
# [4] = test system: receptor in rat spleen membranes; settings: cited from earlier work
# guinea pig atria = settings: cited from earlier work
compound,measurement,setting,value
"CC[C@H](C)[C@H](NC(=O)[C@H](CCC(N)=O)NC(=O)[C@H](Cc1c[nH]cn1)NC(=O)[C@H](C)NC(=O)[C@H](CC(C)C)NC(=O)[C@H](CCCCN)NC(=O)[C@H](CCC(N)=O)NC(=O)[C@@H](NC(=O)[C@@H](NC(=O)[C@@H]1CSSC[C@H](NC(=O)CNC(=O)CNC(=O)c2ccc3c(c2)C2(OC3=O)c3ccc(N(C)C)cc3Oc3cc(N(C)C)ccc32)C(=O)N[C@@H](CCCNC(=N)N)C(=O)N[C@@H](Cc2ccccc2)C(=O)NCC(=O)N[C@@H]([C@@H](C)O)C(=O)N1)[C@@H](C)O)C(C)C)C(=O)N[C@@H](Cc1ccc(O)cc1)C(=O)N[C@@H](CCC(N)=O)C(=O)N[C@@H](Cc1ccccc1)C(=O)N[C@H](C(=O)N[C@@H](CC(=O)O)C(=O)N[C@@H](CCCCN)C(=O)N[C@@H](CC(=O)O)C(=O)N[C@@H](CCCCN)C(=O)N[C@@H](CC(=O)O)C(=O)N[C@@H](CC(N)=O)C(=O)N[C@H](C(=O)N[C@@H](C)C(=O)N1CCC[C@H]1C(=O)N[C@@H](CCCNC(=N)N)C(=O)N[C@@H](CO)C(=O)N[C@@H](CCCCN)C(=O)N[C@H](C(=O)N[C@@H](CO)C(=O)N1CCC[C@H]1C(=O)N[C@@H](CCC(N)=O)C(=O)NCC(=O)N[C@@H](Cc1ccc(O)cc1)C(N)=O)[C@@H](C)CC)C(C)C)[C@@H](C)O [TAM-control, TAM[G^14]ADM(14-52), reference compound]",half-life at 0.0001 M,[1],9 h
adrenomedullin (human) [wt ADM],duration of blood pressure reduction,[2],≤ 4 h
"amylin-(1-8) (KCNTATCA; ends and bridges not checked; cysteine pairing not given here; UniProt P10997 34-41, looked up, fragment) [native octapeptide amylin (1-8), literature]",time stable on storage,[3],6 month
"cyclo [Asp^2, Lys^7]-CGRP",decrease in affinity to the receptor,[4],50%
same,biological activity (agonist function),guinea pig atria,loss of agonist function

# — patent US20180022780A1, “STABILIZATION ADRENOMEDULLIN DERIVATIVES AND USE THEREOF” (priority 2014, published 2018)
